“And” between values parts separate entries of the source, which are not always exact repeats. Equal values may be shown once.
How the values were obtained:
p53 = p53 level assay in MCF-7 cells; assay type: cell-based, human
Description: (§1) Compounds10k and 10l were tested as caspases-3, 8, 9, Bax and p53 activators and as down-regulators of the anti-apoptotic protein Bcl2 against the MCF-7 breast cancer cell line.[41] Appendix A gives more details.
P53's ability to eliminate superfluous, damaged, or contaminated cells by apoptosis is critical for the proper regulation of cell proliferation in multicellular organisms.[49] p53 is activated by both external and internal stress signals, allowing for nuclear accumulation in an active state. As a result, p53 induces either reversible cell growth arrest or apoptosis. The aforesaid activity is necessary for tumor suppression.[50]

caspase-8 = assay: Caspase-8 activation assay in MCF-7 cells; assay type: cell-based, human; conditions: for Caspase-8 Fold change: vs untreated control
Description: as §1
(§2) To elucidate the apoptotic processes of compounds 10k and 10l, whether via the intrinsic or extrinsic pathway, their impacts on caspase-8 and caspase-9 were evaluated. […] This signifies the activation of both intrinsic and extrinsic pathways (Table 5).
(§3) 4.2.6. Caspase-8/9 activation assay
(§4) Cells were obtained from American Type Culture Collection, cells were grown in RPMI 1640 containing 10% fetal bovine serum at 37°C, stimulated with the compounds to be tested for caspase 8/9, and lysed with Cell Extraction Buffer. This lysate was diluted in Standard Diluent Buffer over the range of the assay and measured for human active caspase-8/9 content. (Cells are Plated in a density of 1.2 – 1.8 × 10,000 cells/well in a volume of 100µl complete growth medium + 100 ul of the tested compound per well in a 96-well plate for 24 hours before the enzyme assay). The absorbance of each microwell was read on a spectro-photometer at 450 nm. […]

A-549 (lung cancer) = assay: Antiproliferative assay, A-549; assay type: cell-based; conditions: Homo sapiens, A549; A-549 lung cancer cells; read-out: Antiproliferative activity IC50 ± SEM, A-549
From the text: (§5) The dose–response experiments established the IC50 values for the new compounds. The given findings were obtained from at least two distinct studies, each comprising three repeats per concentration. Appendix A (SI File) provides experimental details.[38,39]
(§6) The MTT assay[43] was utilized to assess the antiproliferative effects of compounds 10a–l on four human cancer cell lines: HT-29 (colon cancer), Panc-1 (pancreatic cancer), A-549 (lung cancer), and MCF-7 (breast cancer). […]
(§7) 4.2.2. Assay for antiproliferative effect
(§8) To explore the antiproliferative potential of compounds propidium iodide fluorescence assay was performed using different cell lines such as Panc-1 (pancreas cancer cell line), MCF-7 (breast cancer cell line), HT-29 (colon cancer cell line) and A-549 (epithelial cancer cell line), respectively. To calculate the total nuclear DNA, a fluorescent dye (propidium iodide, PI) is used which can attach to the DNA, thus offering a quick and precise technique. PI cannot pass through the cell membrane and its signal intensity can be considered as directly proportional to quantity of cellular DNA. Cells whose cell membranes are damaged or have changed permeability are counted as dead ones. The assay was performed by seeding the cells of different cell lines at a density of 3000-7500 cells/well (in 200μl medium) in culture plates followed by incubation for 24h at 37 °C in humidified 5%CO2/95% air atmospheric conditions. The medium was removed; the compounds were added to the plates at 10 μM concentrations (in 0.1% DMSO) in triplicates, followed by incubation for 48h. DMSO (0.1%) was used as control. After incubation, medium was removed followed by the addition of PI (25 μl, 50μg/mL in water/medium) to each well of the plates. At - 80 °C, the plates were allowed to freeze for 24 h, followed by thawing at 25 °C. A fluorometer (Polar-Star BMG Tech) was used to record the readings at excitation and emission wavelengths of 530 and 620 nm for each well. The percentage cytotoxicity of compounds was calculated using […]
(§9) Where ATC= Absorbance of treated cells and AC= Absorbance of control. Erlotinib was used as positive control in the assay. […]

caspase-3 = assay: Caspase-3 activation assay in MCF-7 cells; assay type: cell-based, human; conditions: for Caspase-3 Fold change: vs untreated control
HT-29 (colon cancer) = assay: Antiproliferative assay, HT-29; assay type: cell-based; conditions: Homo sapiens; HT-29 colon cancer cells; read-out: Antiproliferative activity IC50 ± SEM, HT-29
From the text: as §5, §6, §7, §8, §9

caspase-9 = assay: Caspase-9 activation assay in MCF-7 cells; assay type: cell-based, human; conditions: for Caspase-9 Fold change: vs untreated control
Description: as §1, §2, §3, §4

IC50 (A-549 (lung cancer)) [nM]	IC50 (HT-29 (colon cancer)) [nM]	Structure (SMILES)	p53 (p53) [pg/mL]	Caspase-8 Conc (caspase-8) [ng/mL]	Caspase-8 Fold change (caspase-8)	Caspase-3 Conc (caspase-3) [pg/mL]	Caspase-3 Fold change (caspase-3)	Caspase-9 Conc (caspase-9) [ng/mL]	Caspase-9 Fold change (caspase-9) [fold]
23 ± 1	23 ± 1	COc1ccc(-c2nc(SCc3nc(-c4ccc(Cl)cc4)no3)[nH]c(=O)c2C#N)cc1 [Compound 10k, 2-(((3-(4-Chlorophenyl)-1,2,4-oxadiazol-5-yl)methyl)thio)-4-(4-methoxyphenyl)-6-oxo-1,6-dihydropyrimidine-5-carbonitrile]	330 ± 2	2.50 ± 0.20	25 fold and 25.00 fold	590 ± 5	9 fold and 9.00 fold	24 ± 1	24
28 ± 1	28 ± 1	COc1ccc(-c2noc(CSc3nc(-c4ccc(OC)cc4)c(C#N)c(=O)[nH]3)n2)cc1 [Compound 10l, 2-(((3-(4-Methoxyphenyl)-1,2,4-oxadiazol-5-yl)methyl)thio)-4-(4-methoxyphenyl)-6-oxo-1,6-dihydropyrimidine-5-carbonitrile]	285 ± 2	2.00 ± 0.10	20 fold and 20.00 fold	530 ± 4	8 fold and 8.00 fold	22 ± 1	22

Source: paper PMC12530851, “Design, synthesis, and apoptotic antiproliferative activity of novel dihydropyrimidine-5-carbonitrile/1,2,4-oxadiazole hybrids as dual EGFR/VEGFR-2 inhibitors endowed with antioxidant activity” (RSC Advances, 2025)
